Where a name gives a salt, the structure may show the parent alone.
Columns and labels:
δ opioid receptors = δ opioid receptors (Rattus norvegicus, UniProt P33533); assay: Opiate Binding Assay, displacement of 3[H]-DSLET from δ opioid receptors (rat forebrain membranes)
μ opioid receptors = μ opioid receptors (Rattus norvegicus, UniProt P33535); assay: Opiate Binding Assay, displacement of 3[H]-DAMPGO from μ opioid receptors (rat forebrain membranes)
[1] = antagonized by naloxone; cited from earlier work
[2] = system: the same receptor sites as do the opiates; conditions: cited from earlier work
[3] = extended use; cited from earlier work
mice = assay: Writhing Assay (phenylbenzoquinone-induced writhing, analgesia, s.c.); type: in vivo, mouse; conditions: for relative potency in the Writhing Assay: among compounds of the invention tested; for Number of Animals out of 10 Exhibiting Analgesia: subcutaneous, 5 mpk, PBQ, mice
Description: The "Writhing Assay" is one of the most widely-used experimental procedures for measuring the analgesic activity of different narcotic and nonnarcotic analgesic agents, and involves the continuous, chemically-induced pain of visceral origin to an animal, such as a mouse or rat. [Gyires et al., Arch. int. Pharmacodyn, 267, 131-140 (1984); C. Vander Wende et al., Fed. Proc., 15, 494 (1956); Koster et al., Fed. Proc., 18, 412 (1959); and Witken et al., J. Pharmacol. Exp. Ther., 153,400-408 (1961).] Chemicals which may be used to induce this pain include phenylbenzoquinone (PBQ) and acetic acid. As a result of the chemical irritation to the animal, a characteristic stretching and writhing of the animal (dorsiflexion of the animal's back, extension of its hindlimbs and the strong contraction of its abdominal musculature) will generally occur. […] Drugs which reduce the number of writhes of the animal appear to restore the normal nociceptive threshold of the animal.
This assay was conducted generally in the manner described by R. I. Taber, "Predictive Value of Analgesic Assays in Mice and Rats," Advances in Biochemical Psychopharmacology, 8, 191 (1974).
Two hundred CD Charles River mice, weighing 20 to 30 grams, were used in this assay.
Twenty-five minutes after subcutaneous administration to the mice of 10 mg per kilogram (mpk) of body weight of a tyrosyl diamine amide compound of the invention (hereinafter "test compound"), 0.1 mL per 10 g of body weight of a 0.025% w/v solution of phenylbenzoquinone (PBQ) was injected intraperitoneally into each mouse. Some mice were given saline in place of a test compound, and were used as a control group.
Five minutes later, each mouse was individually placed into a glass beaker for observation, and the number of writhes occurring during the following ten-minute period was counted.
A compound was considered to be "active" (to have produced analgesia in a mouse) if, after the administration of 10 mg per kilogram (mpk) of body weight of the compound to the mouse, the number of writhes elicited by a mouse injected with PBQ was equal to, or less than, one-half the median number of writhes recorded for the saline-treated control group of mice that day, as described by R. I. Taber, supra.
The standard initial screening dose of a test compound employed in this assay was 10 mpk […]. […] (The slopes of the dose-response curves for the compounds analyzed were compared as described by Tallarida and Murray, Manual of Pharmacologic Calculations, Page 11 (Springer Verlag, New York, 1981)).

Chain of μ opioid receptors (P33535 whole entry): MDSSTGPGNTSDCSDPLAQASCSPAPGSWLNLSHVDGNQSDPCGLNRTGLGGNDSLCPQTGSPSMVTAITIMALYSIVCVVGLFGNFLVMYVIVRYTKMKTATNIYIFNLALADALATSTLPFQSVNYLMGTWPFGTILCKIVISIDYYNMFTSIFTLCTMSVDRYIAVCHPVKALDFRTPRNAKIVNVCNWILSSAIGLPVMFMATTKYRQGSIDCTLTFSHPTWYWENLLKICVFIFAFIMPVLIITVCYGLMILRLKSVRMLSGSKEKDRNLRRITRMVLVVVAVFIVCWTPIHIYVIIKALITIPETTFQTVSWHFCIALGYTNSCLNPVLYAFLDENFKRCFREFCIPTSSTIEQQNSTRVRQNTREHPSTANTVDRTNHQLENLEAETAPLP
Chain of δ opioid receptors (P33533 whole entry): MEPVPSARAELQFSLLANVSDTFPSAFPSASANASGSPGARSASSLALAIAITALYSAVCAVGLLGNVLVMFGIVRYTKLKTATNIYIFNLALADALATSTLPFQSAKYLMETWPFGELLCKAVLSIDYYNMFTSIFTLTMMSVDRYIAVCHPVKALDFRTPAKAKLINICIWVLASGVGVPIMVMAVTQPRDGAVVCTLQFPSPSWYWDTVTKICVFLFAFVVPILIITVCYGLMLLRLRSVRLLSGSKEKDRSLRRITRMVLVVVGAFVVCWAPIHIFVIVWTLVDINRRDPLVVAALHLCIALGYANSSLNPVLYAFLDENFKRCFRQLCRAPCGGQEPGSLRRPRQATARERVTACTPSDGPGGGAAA

Cc1cc(O)cc(C)c1C[C@H](N)C(=O)N1CCN(Cc2ccccc2)CC1 [Example 15, 1-[2S-Amino-3-(4-hydroxy-2,6-dimethylphenyl)-1-oxopropyl]-4-(phenylmethyl)piperazine, dihydrochloride]
IC50 (δ opioid receptors): 14.9 nM | IC50 (μ opioid receptors): 4.5 nM

CSCC[C@H](NC(=O)[C@H](Cc1ccccc1)NC(=O)CNC(=O)CNC(=O)[C@@H](N)Cc1ccc(O)cc1)C(=O)O [methionine enkephalin, H2 N-Tyr-Gly-Gly-Phe-Met-OH]
morphine-like actions [1]: exhibit some weak morphine-like actions | binding to the same receptor sites as do the opiates [2]: bind to the same receptor sites as do the opiates

Cc1cc(O)cc(C)c1C[C@H](N)C(=O)NC(C)(C)CNC(=O)c1cnc2ccccc2c1 [Example 8, N-[2-[[2S-amino-3-(4-hydroxy-2,6-dimethylphenyl)-1-oxopropyl]amino]-2-methylpropyl]-3-quinolinecarboxamide, hydrochloride]
IC50 (δ opioid receptors): 25 nM | IC50 (μ opioid receptors): < 10 nM

Cc1cc(O)cc(C)c1C[C@H](N)C(=O)NCC(C)(C)NC(=O)NCc1ccccc1 [Example 11, αS-amino-4-hydroxy-2,6-dimethyl-N-[2-methyl-2-[[[(phenylmethyl)amino]carbonyl]amino]propyl]benzenepropanamide, hydrochloride]
IC50 (δ opioid receptors): 32.8 nM | IC50 (μ opioid receptors): 58.6 nM

CC(=O)Nc1ccc(O)cc1 [acetaminophen]
undesirable side effects [3]: liver toxicity

Cc1cc(O)cc(C)c1C[C@H](N)C(=O)NC(C)(C)CNC(=O)C#Cc1ccccc1 [Example 18, S-Amino-N-[1,1-dimethyl-2-[(1-oxo-3-phenyl-2-propynyl)amino]ethyl]-4-hydroxy-2,6-dimethylbenzenepropanamide, monohydrochloride]
IC50 (δ opioid receptors): 9.3 nM | IC50 (μ opioid receptors): < 10 nM

Cc1cc(O)cc(C)c1C[C@H](N)C(=O)NC(C)(C)CNC(=O)c1ccc2ccccc2n1 [Example 6, N-[2-[[2S-amino-3-(4-hydroxy-2,6-dimethylphenyl)-1-oxopropyl]amino]-2-methylpropyl]-2-quinolinecarboxamide, hydrochloride]
IC50 (δ opioid receptors): 3.5 nM | relative potency in the Writhing Assay (mice): the most potent compounds of the invention tested in the Writhing Assay | Number of Animals out of 10 Exhibiting Analgesia (mice): 10/10 | IC50 (μ opioid receptors): 1.3 nM

Cc1cc(O)cc(C)c1C[C@H](N)C(=O)NCC(C)(C)NC(=O)CCc1ccccc1 [Example 14, αS-Amino-4-hydroxy-2,6-dimethyl-N-[2-methyl-2-[(1-oxo-3-phenylpropyl)amino]propyl]benzenepropanamide, hydrochloride]
IC50 (δ opioid receptors): 66.3 nM | IC50 (μ opioid receptors): 26.3 nM

Cc1cc(O)cc(C)c1C[C@H](N)C(=O)NC(C)(C)CNC(=O)NCc1ccccc1 [Example 10, αS-amino-N-[1,1-dimethyl-2-[[[(phenylmethyl)amino]carbonyl]amino]ethyl]-4-hydroxy.2,6-dimethylbenzenepropanamide, hydrochloride]
IC50 (δ opioid receptors): 23.1 nM | IC50 (μ opioid receptors): < 10 nM

CC(C)C[C@H](NC(=O)[C@H](Cc1ccccc1)NC(=O)CNC(=O)CNC(=O)[C@@H](N)Cc1ccc(O)cc1)C(=O)O [leucine enkephalin, H2 N-Tyr-Gly-Gly-Phe-Leu-OH]
morphine-like actions [1]: exhibit some weak morphine-like actions | binding to the same receptor sites as do the opiates [2]: bind to the same receptor sites as do the opiates

Cc1cc(O)cc(C)c1C[C@H](N)C(=O)NC(C)(C)CNC(=O)CCc1ccccc1 [Example 13, αS-amino-N-[1,1-dimethyl-2-[(1-oxo-3-phenylpropyl)amino]ethyl]-4-hydroxy-2,6-dimethylbenzenepropanamide, hydrochloride]
IC50 (δ opioid receptors): 5.5 nM | relative potency in the Writhing Assay (mice): the most potent compounds of the invention tested in the Writhing Assay | Number of Animals out of 10 Exhibiting Analgesia (mice): 10/10 | IC50 (μ opioid receptors): < 10 nM

Cc1cc(O)cc(C)c1C[C@H](N)C(=O)NC(C)(C)CNC(=O)OCc1ccccc1 [Example 3, Phenylmethyl[2-[[2S-amino-3-(4-hydroxy-2,6-dimethylphenyl)-1-oxopropyl]amino]-2-methylpropyl]carbamate, monohydrochloride]
IC50 (δ opioid receptors): 10 nM | IC50 (μ opioid receptors): 62 nM

— patent US5389645A, “Substituted tyrosyl diamine amide compounds” (G. D. Searle & Co., priority 1992, dated 1995)
